Source: patent publication US11266710B2, “Angio-3 for treatment of retinal angiogenic diseases” (SINGAPORE HEALTH SERVICES PTE LTD, priority 2017, dated 2022)
Where no end group is shown, it is not given here. [ ]: non-standard residue; d: D form. hArg = N=C(N)NCCCC[C@H](N)C(=O)O

Columns and labels:
[1] = test system: laser-induced CNV in C57/BL6J (B6J) wild type mice; assay: Laser-induced choroidal neovascularization (CNV) model in mice, area of leakage by FFA; format: in vivo; conditions: for Area of Leakage (mean) Week 1 / Area of Leakage (mean) Week 4: laser-induced CNV mice; for Area of Leakage (mean) Week 1 / Area of Leakage (mean) Week 4 / choroidal angiogenesis: prevention mode; for % Reduction (area of leakage): vehicle control = 0%; for choroidal angiogenesis: B6J mice, single intravitreal injection at dose 100 ng, 1 g, and 5 μg
Procedure: FIG. 3A is a schematic of the experimental design on the efficacy of Angio-3 in a laser-induced choroidal neovascularization (CNV) model in mice (B6J WT mice). FIG. 3B are FFA images of baseline and at different time points post treatment. IV single injection of 100 μL of Angio-3 (25 mg/Kg Bwt) was given at Day 0 (prevention mode) and 4 days after laser (regression mode) and followed for 10 weeks. FIG. 3C is a graph showing the area of leakage by each eye for various groups. FIG. 3D are graphs of the mean area of leakage of all batches for each group. […] The attenuation retinal vascularization was better than scrambled peptide. n=6 eyes per batch; n=3 batches. Values are expressed as means±s.e.m., **P<0.01, *P<0.05, student's t-test. FIG. 3E is a graph of the result of the Retinal Function Test that measures ERG changes in Angio-3 treated and control.
FIG. 4A is a schematic of the experimental design on the efficacy of Angio-3 by IVT administration. […]
FIG. 11 A are FFA images of baseline and at different time points post treatment. Mice received single IVT injection of Angio-3 (at a dose of 1 μg in 1 μl or 100 ng in 1 μl), and chemically modified Angio-3 peptides Pep-N (at doses of 5 μg in μl; 1 μg in μl; and 100 ng in 1 μl, respectively) and Pep-Q peptides (at doses of 5 μg in μl; 1 μg in μl; and 100 ng in 1 μl, respectively). FIG. 11 B is a graph of the area of leakage by each eye. Single dose attenuates retinal angiogenesis in laser-induced mice CNV model via IVT route till 4 weeks. […] Eylea is the positive control. n=18 eyes per group; Values are expressed as means±s.e.m. n=3 independent experiment, **P<0.01, *P<0.05, student's t-test.
Laser induced choridal neo-vascularization (CNV) in C57/BL6J (B6J) wild type mice (n=90).
In B6J mice, single injection of 100 μl volume at 25 mg/kg Bwt concentration Angio-3 was injected via intravenous (i/v) route and this was tested in both Preventive mode (before laser) and Regression mode (4 days after laser). […]
Angio-3 was also injected via intravitreal (IVT) route, single injection of 1 μl volume at 2 different doses; 1 μg (High dose) and 100 ng (Low dose).
4 laser photocoagulation sites were placed concentrically around the optic disc of both eyes to induce CNVs. A diode laser (810 nm) was used with a relative potency scale of 120 mW for mice and 250 mW for rats, an exposure time of 0.05 s, and a spot size of […]. Laser spots were focused with crystal covers to avoid laser beam dispersion. Bubble formation was confirmed the rupture of Bruch's membrane.
Fundus photography and fundus fluorescein angiography (FFA) was imaged using a MICRON IV fundus camera (Phoenix Laboratories USA). For FFA, animals were intraperitoneally injected with 10% sodium fluorescein at a dose of 0.01 ml per 5-6 gm body weight.
In B6J mice, single intravitreous (IVT) injection of 100 ng, 1 μg, 5 μg PEP-Q, PEP-N (modified Angio-3), Angio-3 and Eylea were executed and this was tested in Prevention mode (before laser) Method of Llser induced CNV model and injection was described as above.

[2] = test system: laser-induced CNV in Cynomolgus monkeys; assay: Laser-induced CNV model in Cynomolgus monkeys (wet AMD model); format: in vivo, Cynomolgus monkey; conditions: 2 mg Angio-3, 2 mg and 4 mg PeptideQ, 2 mg Eylea, single IVT
Procedure: FIGS. 25A, 25B, 25C, 25D, 25E, and 25F show the results of testing in a laser-induced chorodial neovascularization (CNV) model in Cynomolgus moneys developed as an experimental model of wet AMD. FIG. 25A is a schematic of the study design. FIG. 25B are representative fundus fluorescein angiography (FFA) images of all groups. FIG. 25C is a graph showing change in mean lesion grade of the eye in monkeys treated with a single dose 2 mg of Angio-3, dose 2 mg of anti-VEGF (Eylea), 2 mg of peptide (Q2) and 4 mg of peptide (Q4) and control. […] FIG. 25E is a graph of laser area quantified from the FFA images by ImageJ software. FIG. 25F are graphs of laser volume quantified from PS-OCT images by ImageJ software.
A laser-induced choroidal neovascularization (CNV) model was developed and validated in Cynomolgus monkeys as experimental model of wet AMD. […] The development of active CNV was assessed by fluorescein angiography, at Day 14 the baseline degree of neovascularization and leakiness were measured and the final fluorescein angiography assessment was performed on Day 28. Leakage area was quantified by ImageJ software. The laser volume was quantified by Spectralis-Heidelberg software using SD-OCT images.

[3] = test system: corneal neovascularization after alkali-burn injury in mice; assay: Corneal neovascularization after alkali-burn injury in mice; format: in vivo, mouse; conditions: 1% solution topically 3×/day for 7 days; vs vehicle control
Procedure: Mice were anesthetized with the combination of 80 mg/kg ketamine and 5 mg/kg xylazine. One drop of 1% xylocaine was applied to the corneal surface for local analgesia. Round piece of filter paper, approximately 2 mm in diameter was soaked in a solution of 1 M NaOH. A piece of NaOH soaked filter paper was picked by sterile forceps. NAOH soaked filter paper was placed on the central cornea under microscope to ensure properly placing the filter paper. Left it for 30 sec to generate an acute alkali-burn of approximately 2×2 mm^2 in area. Filter paper was removed and then gently flushed the eye with 10 ml of 1×PBS twice to wash away residual 1 M NaOH. Only one eye of the mouse was injured and the other serving as a control. A drop of 1× Peptide Q (1% solution as test compound) or a vehicle control consisting of PBS was topically applied to the cornea. Repeated application occurred 3×/day for 7 days. At end point, clinical assessment was done as stated below and eyes were enucleated for corneal flat mount.
A daily examination of the mice in a blinded fashion was performed under a surgical microscope and score corneal neo-vascularization (NV) was based on corneal opacity, NV and vessel size. Two observers were scored and record a final score that was the average of the two. Score corneal opacity on a scale of 0-4. […]

HRMEC cells [4] = assay: VEGF induced proliferation of HRMEC cells (Alamar-Blue); format: cell-based; conditions: 300 μg/ml; 10 ng/ml or 50 ng/ml VEGF165; 3 days
Procedure: 2000 HRMEC cells were seeded in 96-well plates in 100 μl of media and placed in a CO2 incubator at 37° C. To evaluate the effect the compounds have on VEGF-induced HRMEC proliferation, cells were treated with 10 ng/ml VEGF165 or 50 ng/ml VEGF165 in the presence of different concentrations of Angio-3 after serum starved in EBM-2 supplemented with 0.5% FBS overnight. 300 μg/ml Avastin was used as a positive control. Alamar-Blue assay was performed after 3 days of treatment.

HRMEC cells [5] = assay: HRMEC transwell migration assay; format: cell-based; conditions: 300 μg/ml; 50 ng/ml VEGF165; overnight
Procedure: Transwell migration assays were performed in a 24-well cells culture plate containing 8.0 μm pore size inserts. HRMEC cells were serum starved overnight prior of assay. The lower chamber were filled with EBM-2, EBM-2 supplemented with 50 ng/ml VEGF165 plus different concentrations of inhibitors. 1×10^5 Cells in EBM-2 were seeded in the upper chamber. Cells were allowed to migrate to the other side of membrane for overnight at 37° C. Cells on top of the membrane were wiped off and cells migrated to the other side were fixed and stained with 0.4% crystal violet. Cell numbers were counted under a 10× objective for 5 randomly selected fields.

Thr Pro His Thr His Asn Xaa Thr Pro Glu, wherein Xaa is homoarginine (TPHTHN[hArg]TPE) [PEP-N, chemically modified Angio-3 peptide]
Area of Leakage (mean) Week 1 ([1]; 100 ng single IVT): 11287.40
Area of Leakage (mean) Week 4 ([1]; 100 ng single IVT): 2237.13
% Reduction (area of leakage) ([1]; 100 ng single IVT): 42.00%
Area of Leakage (mean) Week 1 ([1]; 1 μg single IVT): 12808.95
Area of Leakage (mean) Week 4 ([1]; 1 μg single IVT): 2402.54
% Reduction (area of leakage) ([1]; 1 μg single IVT): 43.06%
Area of Leakage (mean) Week 1 ([1]; 5 μg single IVT): 8251.43
Area of Leakage (mean) Week 4 ([1]; 5 μg single IVT): 749.71
% Reduction (area of leakage) ([1]; 5 μg single IVT): 52.73%
choroidal angiogenesis [1]: significantly attenuates the choroidal angiogenesis

Thr Pro His Thr His Gln Xaa Thr Pro Glu, wherein Xaa is homoarginine (TPHTHQ[hArg]TPE) [PEP-Q, chemically modified Angio-3 peptide]
Area of Leakage (mean) Week 1 ([1]; 100 ng single IVT): 9987.09
Area of Leakage (mean) Week 4 ([1]; 100 ng single IVT): 1283.52
% Reduction (area of leakage) ([1]; 100 ng single IVT): 48.96%
Area of Leakage (mean) Week 1 ([1]; 1 μg single IVT): 13444.14
Area of Leakage (mean) Week 4 ([1]; 1 μg single IVT): 1271.30
% Reduction (area of leakage) ([1]; 1 μg single IVT): 52.36%
Area of Leakage (mean) Week 1 ([1]; 5 μg single IVT): 12839.27
Area of Leakage (mean) Week 4 ([1]; 5 μg single IVT): 742.03
% Reduction (area of leakage) ([1]; 5 μg single IVT): 56.04%
choroidal angiogenesis [1]: significantly attenuates the choroidal angiogenesis
comparative efficacy between treatment groups [2]: dose dependent efficacy and higher dose efficacy close to Eylea
corneal NV area seven days after alkali-burn injury [3]: significantly reduced corneal NV area

bevacizumab [Avastin]
VEGF induced HRMEC proliferation (HRMEC cells [4]): sufficient to inhibit VEGF induce proliferation
VEGF induced HRMEC migration (HRMEC cells [5]): completely blocked
